# From patent publication US20250263408A1 (Uniquest Pty Ltd, priority 2022, published 2025)
# How the values were obtained:
# [1] = system: Ba/F3-WT (wild type) cells; assay: Ba/F3 Proliferation Assay, Ba/F3-WT (wild type) cells with mIL-3 (Resazurin); format: cell-based; conditions: Mus musculus, BaF3, 48 h, Ba/F3-WT cells +mIL-3, 48-hour incubation
# Ba/F3-Syk cells = target: T1, Ba/F3-Syk cells (Homo sapiens, UniProt P43405); assay: Ba/F3 Proliferation Assay, Ba/F3-Syk cells (Resazurin); format: cell-based; conditions: 48-hour incubation
# T1 construct: fused on or other part: Possible but unprinted fusion partner: TEL (ETV6), the usual partner for Ba/F3 lines transformed by Syk; Nothing on a partner is printed
Structure (SMILES),EC50 [1] [nM],EC50 (Ba/F3-Syk cells) [nM]
"C[C@@H](Oc1nc(-c2cnn(C)c2)cc2ncccc12)[C@@H]1CNCC(C)(C)O1 [Compound 2.83, 5-[(1R)-1-[(2S)-6,6-dimethylmorpholin-2-yl]ethoxy]-7-(1-methyl-1H-pyrazol-4-yl)-1,6-naphthyridine]",1650,34.2
"CC(C)n1cc(-c2cc3ncccc3c(O[C@H](C)[C@@H]3CNCC(C)(C)O3)n2)cn1 [Compound 2.84, 5-[(1R)-1-[(2S)-6,6-dimethylmorpholin-2-yl]ethoxy]-7-[1-(propan-2-yl)-1H-pyrazol-4-yl]-1,6-naphthyridine]",2210,22.3
"CC(C)(C)n1cc(-c2cc3ncccc3c(OC[C@@H]3CNCC(F)(F)CO3)n2)cn1 [Compound 2.86, 7-(1-tert-butyl-1H-pyrazol-4-yl)-5-{[(2S)-6,6-difluoro-1,4-oxazepan-2-yl]methoxy}-1,6-naphthyridine]",> 10000,2160
"CC1(C)CNC[C@@H](COc2nc(-c3cnn(C4(C)CCC4)c3)cc3ncccc23)O1 [Compound 2.87, 5-{[(2S)-6,6-dimethylmorpholin-2-yl]methoxy}-7-[1-(1-methylcyclobutyl)-1H-pyrazol-4-yl]-1,6-naphthyridine]",1100,11.2
"CC1(C)CNC[C@@H](COc2nc(-c3cnn(C4(C)CC4)c3)cc3ncccc23)O1 [Compound 2.88, 5-{[(2S)-6,6-dimethylmorpholin-2-yl]methoxy}-7-[1-(1-methylcyclopropyl)-1H-pyrazol-4-yl]-1,6-naphthyridine]",1560,17.6
CC1(C)CNC[C@@H](COc2nc(-c3cnn(C4(C)CCOC4)c3)cc3ncccc23)O1 (stereo partly shown) [Compound 2.89],2730,21.7
"CC[C@H]1CNC[C@@H](COc2nc(-c3cnn(C(C)(C)C)c3)cc3ncccc23)O1 [Compound 2.92, 7-(1-tert-butyl-1H-pyrazol-4-yl)-5-{[(2S,6S)-6-ethylmorpholin-2-yl]methoxy}-1,6-naphthyridine]",599,29
"CC[C@@H]1CNC[C@@H](COc2nc(-c3cnn(C(C)(C)C)c3)cc3ncccc23)O1 [Compound 2.93, 7-(1-tert-butyl-1H-pyrazol-4-yl)-5-{[(2S,6R)-6-ethylmorpholin-2-yl]methoxy}-1,6-naphthyridine]",1240,27.7
"CC(C)n1cc(-c2cc3ncccc3c(OC[C@H]3OCCN[C@H]3C)n2)cn1 [Compound 2.96, 5-{[(2S,3S)-3-methylmorpholin-2-yl]methoxy}-7-[1-(propan-2-yl)-1H-pyrazol-4-yl]-1,6-naphthyridine]",724,20.1
"O=C1CCn2cc(-c3cc(OC[C@@H]4CNCCO4)c4cccnc4c3)cc21 [Compound 3, 6-(5-{[(2S)-morpholin-2-yl]methoxy}quinolin-7-yl)-2,3-dihydro-1H-pyrrolizin-1-one]",1950,162
"c1cnc2cc(-c3cnn(C4CC4)c3)cc(OC[C@@H]3CNCCO3)c2c1 [Compound 3.3, 7-(1-cyclopropyl-1H-pyrazol-4-yl)-5-{[(2S)-morpholin-2-yl]methoxy} quinoline]",2590,179
"c1cnc2cc(-c3cnn(C4CCC4)c3)cc(OC[C@@H]3CNCCO3)c2c1 [Compound 3.5, 7-(1-cyclobutyl-1H-pyrazol-4-yl)-5-{[(2S)-morpholin-2-yl]methoxy}quinoline]",902,61.8
"Cc1cc(-c2cc(OC[C@@H]3CNCCO3)c3cccnc3c2)cs1 [Compound 3.7, 7-(5-methylthiophen-3-yl)-5-{[(2S)-morpholin-2-yl]methoxy}quinoline]",3730,134
"c1cnc2cc(-c3cc[nH]c3)cc(OC[C@@H]3CNCCO3)c2c1 [Compound 3.9, 5-{[(2S)-morpholin-2-yl]methoxy}-7-(1H-pyrrol-3-yl)quinoline]",> 10000,167
"CC1(C)CNC[C@@H](COc2cc(-c3cnn(C(F)F)c3)cc3ncccc23)O1 [Compound 3.11, 7-[1-(difluoromethyl)-1H-pyrazol-4-yl]-5-{[(2S)-6,6-dimethylmorpholin-2-yl]methoxy}quinoline]",2140,163
"CC1(C)CNC[C@@H](COc2cc(-c3cnn(CC(F)F)c3)cc3ncccc23)O1 [Compound 3.12, 7-[1-(2,2-difluoroethyl)-1H-pyrazol-4-yl]-5-{[(2S)-6,6-dimethylmorpholin-2-yl]methoxy}quinoline]",1680,87
"CC1(C)CNC[C@@H](COc2cc(-c3cnn(C4CCC4)c3)cc3ncccc23)O1 [Compound 3.13, 7-(1-cyclobutyl-1H-pyrazol-4-yl)-5-{[(2S)-6,6-dimethylmorpholin-2-yl]methoxy}quinoline]",814,35.8
"CC1(C)CNC[C@@H](COc2cc(-c3ccn(C(C)(C)C)c3)cc3ncccc23)O1 [Compound 3.16, 7-(1-tert-butyl-1H-pyrrol-3-yl)-5-{[(28)-6,6-dimethylmorpholin-2-yl]methoxy}quinoline]",6170,11.9

Structure (SMILES),EC50 [1] [nM],EC50 (Ba/F3-Syk cells) [nM]
"CC(C)(C)n1ccc(-c2cc(OC[C@@H]3CNCC4(CC4)O3)c3cccnc3c2)c1 [Compound 3.18, 7-(1-tert-butyl-1H-pyrrol-3-yl)-5-{[(5S)-4-oxa-7-azaspiro[2.5]octan-5-yl]methoxy}quinoline]",5420,23.1
"CC(C)(C)n1cc(-c2cc(OC[C@@H]3CNCC4(CC4)O3)c3cccnc3c2)cn1 [Compound 3.20, 7-(1-tert-butyl-1H-pyrazol-4-yl)-5-{[(5S)-4-oxa-7-azaspiro[2.5]octan-5-yl]methoxy}quinoline]",1960,35.5
"CC(C)n1cc(-c2cc(OC[C@@H]3CNCC4(CC4)O3)c3cccnc3c2)cn1 [Compound 3.21, 5-{[(SS)-4-oxa-7-azaspiro[2.5]octan-5-yl]methoxy}-7-[1-(propan-2-yl)-1H-pyrazol-4-yl]quinoline]",614,13.1
"Cn1ccc(-c2cc(OC[C@@H]3CNCCCO3)c3cccnc3c2)c1 [Compound 3.22, 7-(1-methyl-1H-pyrrol-3-yl)-5-{[(2S)-1,4-oxazepan-2-yl]methoxy}quinoline]",9680,99
"c1cnc2cc(-c3cc4n(c3)CCC4)cc(OC[C@@H]3CNCCO3)c2c1 [Compound 4, 7-(2,3-dihydro-1H-pyrrolizin-6-yl)-5-{[(2S)-morpholin-2-yl]methoxy}quinoline]",7210,87.7
"Cn1cc(-c2cc(OC[C@@H]3CNCCO3)c3cncnc3c2)cn1 [Compound 4.1, 7-(1-methyl-1H-pyrazol-4-yl)-5-{[(2S)-morpholin-2-yl]methoxy} quinazoline]",7430,2320
"CC1(C)CNC[C@@H](COc2cc(-c3cnn(C(C)(C)C)c3)cc3ncncc23)O1 [Compound 4.2, 7-(1-tert-butyl-1H-pyrazol-4-yl)-5-{[(2S)-6,6-dimethyl-morpholin-2-yl]methoxy} quinazoline]",> 10000,171
"Cn1ccc(-c2cc(OC[C@@H]3CNCCO3)c3cncnc3c2)c1 [Compound 4.3, 7-(1-methyl-1H-pyrrol-3-yl)-5-{[(2S)-morpholin-2-yl]methoxy} quinazoline]",5010,586
"CCn1ccc(-c2cc3ncccc3c(OC[C@@H]3CNCCO3)n2)c1 [Compound 6.1, 7-(1-ethyl-1H-pyrrol-3-yl)-5-{[(2S)-morpholin-2-yl]methoxy}-1,6-naphthyridine]",2660,38.8
"c1cnc2cc(-c3ccn(C4CCC4)c3)nc(OC[C@@H]3CNCCO3)c2c1 [Compound 6.3, 7-(1-cyclobutyl-1H-pyrrol-3-yl)-5-{[(2S)-morpholin-2-yl]methoxy}-1,6-naphthyridine]",2460,51.9
"c1cnc2cc(-c3ccn(CC4CC4)c3)nc(OC[C@@H]3CNCCO3)c2c1 [Compound 6.4, 7-[1-(cyclopropylmethyl)-1H-pyrrol-3-yl]-5-{[(2S)-morpholin-2-yl]methoxy}-1,6-naphthyridine]",2650,74.8
"FC(F)Cn1cc(-c2cc3ncccc3c(OC[C@@H]3CNCCO3)n2)cn1 [Compound 6.6, 7-[1-(2,2-difluoroethyl)-1H-pyrazol-4-yl]-5-{[(2S)-morpholin-2-yl]methoxy}-1,6-naphthyridine]",1920,81.9
"F/C=C\n1cc(-c2cc3ncccc3c(OC[C@@H]3CNCCO3)n2)cn1 [Compound 6.7, 7-{1-[(1Z)-2-fluoroethenyl]-1H-pyrazol-4-yl}-5-{[(2S)-morpholin-2-yl]methoxy}-1,6-naphthyridine]",3400,113
"F/C=C/n1cc(-c2cc3ncccc3c(OC[C@@H]3CNCCO3)n2)cn1 [Compound 6.8, 7-{1-[(1E)-2-fluoroethenyl]-1H-pyrazol-4-yl}-5-{[(2S)-morpholin-2-yl]methoxy}-1,6-naphthyridine]",4880,181
"c1cnc2cc(-c3cnn(CC4CC4)c3)nc(OC[C@@H]3CNCCO3)c2c1 [Compound 6.12, 7-[1-(cyclopropylmethyl)-1H-pyrazol-4-yl]-5-{[(2S)-morpholin-2-yl]methoxy}-1,6-naphthyridine]",994,66.7
"CC1(C)CNC[C@@H](COc2nc(-c3ccn(C4CCC4)c3)cc3ncccc23)O1 [Compound 6.14, 7-(1-cyclobutyl-1H-pyrrol-3-yl)-5-{[(2S)-6,6-dimethylmorpholin-2-yl]methoxy}-1,6-naphthyridine]",1800,14.3
"CC1(C)CNC[C@@H](COc2nc(-c3ccn(CC4CC4)c3)cc3ncccc23)O1 [Compound 6.15, 7-[1-(cyclopropylmethyl)-1H-pyrrol-3-yl]-5-{[(2S)-6,6-dimethylmorpholin-2-yl]methoxy}-1,6-naphthyridine]",2340,20.3
